Assays:
NFATc-1 = test: Western blot, sRANKL-induced NFATc-1 expression in RAW264.7 cells; format: cell-based, mouse; details: RAW264.7, 30 min pre-treatment, sRANKL 50 ng/ml, FIG. 3C-3D
Protocol: FIGS. 3A-3D are data collected from Western blot analysis that respectively depict the expression of specified protein extracted from the RAW264.7 cells, which are pre-treated with specified concentrations of MLN4924 for 30 minutes followed by the stimulation of sRANKL (50 ng/ml) according to example 2 of the present disclosure. FIG. 3A: the time course effect of MLN4924 on the phosphorylations of ERK (pERK), P38 (pP38) and JNK (pJNK). FIG. 3B: the dose effect of MLN4924 on the phosphorylations of ERK (pERK), P38 (pP38) and JNK (pJNK). FIG. 3C: the time course effect of MLN4924 on the expression of NFATc-1. FIG. 3D: the dose effect of MLN4924 on the expression of NFATc-1. Mock: untreated control; R: sRANKL; M: MLN4924.
The RAW264.7 cells were starved with serum-free medium for six hours and then treated with the specified treatments. At indicated time points, the cells were washed with cold phosphate-buffered saline (PBS) and lysed in RIPA buffer containing complete protease inhibitor cocktail (Roche). The cell lysates were separated by SDS-PAGE followed by Western blotting with the indicated antibodies, including NEDD8, APPBP1, UBA3.
In addition, ectopic expression of NFATc-1 in the pre-osteoclasts rendered the pre-osteoclast differentiated to osteoclasts in the absence of RANKL. […]

MC3T3-E1 cells = test: Osteoblast survival, crystal violet staining of MC3T3-E1 cells; format: cell-based, mouse; details: MC3T3-E1, osteoblast differentiation medium, 21 days, FIG. 4A
Protocol: FIGS. 4A-4B respectively depict the osteogenesis of mouse pre-osteoblast cell line MC3T3-E1 cells incubated in the differentiation medium containing specified concentrations of MLN4924 for 21 days according to example 3 of the present disclosure. FIG. 4A: the growth of MC3T3-E1 cells during osteogenesis is analyzed by crystal violet staining. FIG. 4B: the osteogenesis of MC3T3-E1 cells on day 21 is analyzed by measuring Alizarin Red S stain. Diff: osteoblast differentiation medium. MLN: MLN4924.
The mouse pre-osteoblast cell line MC3T3-E1 cells were cultured in osteoblast differentiation medium with or without MLN4924 for 21 days.

[1] = tested on: ovariectomized (OVX) mice; test: Three-point bending test of femurs of OVX + sRANKL mice; format: in vivo, mouse; details: 10 mg/kg i.p. once daily for 2 weeks
Description: FIGS. 7A-7D are histograms respectively depicting the mechanical properties of femurs in control, OVX, OVX+RANKL, and OVX+RANKL+MLN4924 groups according to example 5.2 of the present disclosure, including modulus (FIG. 7A), strain at break (FIG. 7B), stress at yield (FIG. 7C), and load at break (FIG. 7D). Values are expressed as mean±SD, N=6 per group. *p<0.05; **p<0.01.
All experimental procedures were approved by the Institutional Animal Care and Use Committee of the Chang Gung Memorial Hospital at Chiayi and complied with the Guideline for the Care and Use of Laboratory Animals available through the National Academy of Sciences (IACUC number: 2013100102 and 2015103001). All efforts were made to minimize the suffering of the animals. C57BL/6J female mice (6-8 weeks old; obtained from BioLasco in Taiwan) were operated ovariectomy surgery (OVX). 48 hours later of OVX operation, sRANKL (1 mg/kg) or saline was injected intraperitoneally once daily for two days followed by intraperitoneal injection of MLN4924 (10 mg/kg) once daily for 2 weeks. Mice were sacrificed with CO2 asphyxiation, and the tibias and femurs were isolated therefrom. The tibias were subject to histochemistry assay, and the femurs were subject to bending test and tomographic analysis by MTS (Testresources, Shakopee, Minn.) and Skyscan 1272 (Bruker, Kontich, Belgium), respectively. Serum levels of cross linked C-telopeptide of type I collagen (CTX-1) (CEA665Mu) was measured by specific ELISA kit (USCN life science incorporation, Wuhan, Hubei, China).
The femurs were tested to failure by three-point bending on an MTS Synergie 200 (Testresources, Shakopee, Minn.). The speed of load application was set as 1 mm/min with preload of 1N, load cell of 500N, settling time of 30 seconds and distance between the points of 10 mm. Force-displacement data were plotted from the structural properties, including modulus, load at break, stress at yield and strain at yield.
Bone loss results in bone fragile, thus rendering bone being easier to break. In this example, mice were first treated with OVX or OVX+sRANKL to cause bone loss, and then MLN4924 was administered. The femurs of mice were then subject to shaft fracture testing by three-point bending so as to evaluate the biomechanical properties thereof.

[2] = tested on: ovariectomized (OVX) mice; test: Serum CTX-1 ELISA in OVX + sRANKL mice; format: in vivo, mouse; details: 10 mg/kg i.p. once daily for 2 weeks, FIG. 6E
Protocol: FIGS. 6A-6E are the data depicting the mouse model of ovariectomy-induced osteoporosis, in which the ovariectomized (OVX) mice are respectively treated with sRANKL (1 mg/Kg) in the absence or presence of MLN4924 (10 mg/Kg) according to example 5.1 of the present disclosure. FIG. 6A: Micro computed-tomography (micro-CT) three-dimensional images of the distal femurs of mice respectively treated with the indicated treatments, in which the left panels represent transaxial plane, and the right panels represent coronal plane. FIGS. 6B-6D: micro-CT measurement of trabecular bone parameters, including bone volume/total volume (FIG. 6B), trabecular number (FIG. 6C), and trabecular space (FIG. 6D). […] Values are expressed as mean±SD, N=6 per group. *p<0.05; **p<0.01.
All experimental procedures were approved by the Institutional Animal Care and Use Committee of the Chang Gung Memorial Hospital at Chiayi and complied with the Guideline for the Care and Use of Laboratory Animals available through the National Academy of Sciences (IACUC number: 2013100102 and 2015103001). […] Serum levels of cross linked C-telopeptide of type I collagen (CTX-1) (CEA665Mu) was measured by specific ELISA kit (USCN life science incorporation, Wuhan, Hubei, China).
Since CTX-1 serve as the biomarker for bone resorption, the level of CTX-1 in the serum of mice receiving specified treatments were then determined.

NS(=O)(=O)OC[C@@H]1C[C@@H](n2ccc3c(N[C@H]4CCc5ccccc54)ncnc32)C[C@@H]1O [MLN4924, (1S,2S,4R)-4-(4-((1S)-2,3-Dihydro-1H-inden-1-ylamino)-7H-pyrrolo(2,3-d)pyrimidin-7-yl)-2-hydroxycyclopentyl) methyl sulphamate]
expression of NFATc-1 induced by sRANKL (NFATc-1): significant suppressed
survival of osteoblasts (crystal violet) (MC3T3-E1 cells): neither the survival of osteoblasts (FIG. 4A), nor the differentiation of osteoblasts (FIG. 4B) was affected
femur modulus ([1]; FIG. 7A): prevented the levels of these parameters from dropping
femur strain at break ([1]; FIG. 7B): prevented the levels of these parameters from dropping
femur stress at yield ([1]; FIG. 7C): prevented the levels of these parameters from dropping
femur load at break ([1]; FIG. 7D): prevented the levels of these parameters from dropping
serum CTX-1 level [2]: significantly rescued the OVX+sRANKL-stimulated serum CTX-1 level upregulation

— US10285994B2, “Method of preventing or treating osteoporosis by neddylation inhibitor” (Chang Gung University, priority 2017, dated 2019)
